Data from ChEMBL document CHEMBL1152026, “Phosphonamidates and phosphonamidate esters as HIV-1 protease inhibitors” (Bioorg Med Chem Lett, 1991).

Tests used:
[1] = The half-life period was determined; format: ADME
[2] = target: T1, Human immunodeficiency virus type 1 protease (Human immunodeficiency virus 1, UniProt Q72874); experiment: Compound was evaluated for its binding affinity against HIV-1 protease
[3] = target: T1, Human immunodeficiency virus type 1 protease; experiment: Compound was evaluated for its inhibitory activity against HIV-1 protease

SMILES | half-life [1] | Ki [2] | IC50 [3]
NC(=O)[C@@H]1CCCN1P(=O)(O)C(Cc1ccccc1)NC(=O)C(F)(F)F (stereo not given in full) | 300 min | 52 µM | 121 µM
NC(=O)[C@H](Cc1ccccc1)NP(=O)(O)C(Cc1ccccc1)NC(=O)C(F)(F)F (stereo not given in full) | 1800 min | 45 µM | 105 µM
COP(=O)(C(Cc1ccccc1)NC(=O)C(F)(F)F)N1CCC[C@H]1C(N)=O (stereo not given in full) |  | 44 µM | 103 µM
COP(=O)(N[C@@H](Cc1ccccc1)C(N)=O)C(Cc1ccccc1)NC(=O)C(F)(F)F (stereo not given in full) |  | 80 µM | 184 µM
